Reference: patent US20220409620A1, “REDUCING IMMUNOGENICITY TO PEGLOTICASE” (Horizon Pharma Rheumatology LLC, priority 2016, published 2022)

Test system: adult patients with uncontrolled gout
Assay: Health Assessment Questionnaire (HAQ-DI, HAQ pain, HAQ health), open-label study
Format: in vivo, human
Design: key to HAQ-Health, Observed, Median / HAQ-Health, Change from Baseline, Median: 0-100 scale; 0 = very well, 100 = very poor health; key to HAQ-DI, Observed, Median / HAQ-DI, Change from Baseline, Median: HAQ-DI scale 0-3; 0 = no difficulty, 3 = unable to do
Conditions: mITT Population
Method: Quality-of-Life Assessment: The HAQ was administered at the Screening and Week −4 or week −6 (prior to the first dose of MTX) Visits during the MTX Run-in Period for the open-label and randomized studies, respectively; prior to pegloticase infusion at the Day 1 and Weeks 14, 24 and 36 Visits or at the Day 1 and weeks 6, 14, 20, 24, 30, 36, and 44 visits during the Pegloticase+IMM Period for the open-label and randomized studies, respectively; at the End of Pegloticase Infusions Visit (if applicable), the Week 52/End of Study/Early Termination Visit and the Post Treatment Periods 3 and 6 Month Follow-up Visits (open-label study). The HAQ-DI is a self-report functional status instrument that can be filled out by a subject in less than 5 minutes and requires 1 minute to score. The index measures disability over the past week by asking a total of 20 questions covering 8 domains of function: dressing and grooming, arising, eating, walking, hygiene, reach, grip, and usual activities. There are at least 2 questions in each domain and the 8 domains represent a comprehensive set of functional activities. The HAQ-DI is calculated by scoring the answer to each question in the HAQ from 0 to 3, with 0 representing the ability to do without any difficulty, and 3 representing inability to do. Any activity that requires assistance from another individual or requires the use of an assistive device raises a 0 or 1 score to a 2. The highest score for each of the 8 domains is summed (range from 0 to 24) and divided by 8 to yield, on a scale with 25 possible values, a Functional Disability Index with a range from 0 to 3. The disability index is based on the number of domains answered and is computed only if the subject completes answers to at least 6 domains. The HAQ pain scale asks subjects to record how much pain they have had in the past week on a scale of 0 to 100, where zero represents “no pain” and 100 represents “severe pain”. The HAQ health scale is a measure of overall health. Subjects are asked to rate how well they are doing on a score of 0 to 100, where zero represents “very well” and 100 represents “very poor” health.

[1] = Early Termination Visit, Methotrexate Baseline
[2] = Early Termination Visit, Pegloticase Baseline
[3] = End of Pegloticase Infusions Visit, Methotrexate Baseline
[4] = End of Pegloticase Infusions Visit, Pegloticase Baseline

Substance: pegloticase
- HAQ-DI, Change from Baseline, Mean (SD) (Day 1, Methotrexate Baseline): 0.1 (0.27)
- HAQ-DI, Change from Baseline, Median (Day 1, Methotrexate Baseline): 0.0
- HAQ-DI, Observed, Mean (SD) (Day 1, Methotrexate Baseline): 0.8 (0.77)
- HAQ-DI, Observed, Median (Day 1, Methotrexate Baseline): 0.5
- HAQ-Health, Change from Baseline, Mean (SD) (Day 1, Methotrexate Baseline): −8.8 (38.29)
- HAQ-Health, Change from Baseline, Median (Day 1, Methotrexate Baseline): 10.0
- HAQ-Health, Observed, Mean (SD) (Day 1, Methotrexate Baseline): 37.8 (27.06)
- HAQ-Health, Observed, Median (Day 1, Methotrexate Baseline): 25.0
- HAQ-Pain, Change from Baseline, Mean (SD) (Day 1, Methotrexate Baseline): 2.3 (19.93)
- HAQ-Pain, Change from Baseline, Median (Day 1, Methotrexate Baseline): 0.0
- HAQ-Pain, Observed, Mean (SD) (Day 1, Methotrexate Baseline): 42.5 (22.24)
- HAQ-Pain, Observed, Median (Day 1, Methotrexate Baseline): 40.0
- HAQ-DI, Change from Baseline, Mean (SD) [1]: 0.2 (0.90)
- HAQ-DI, Change from Baseline, Median [1]: −0.3
- HAQ-DI, Observed, Mean (SD) [1]: 0.7 (0.51)
- HAQ-DI, Observed, Median [1]: 0.6
- HAQ-Health, Change from Baseline, Mean (SD) [1]: −0.7 (16.77)
- HAQ-Health, Change from Baseline, Median [1]: 8.0
- HAQ-Health, Observed, Mean (SD) [1]: 28.3 (40.72)
- HAQ-Health, Observed, Median [1]: 10.0
- HAQ-Pain, Change from Baseline, Mean (SD) [1]: 19.0 (36.51)
- HAQ-Pain, Change from Baseline, Median [1]: 7.0
- HAQ-Pain, Observed, Mean (SD) [1]: 46.7 (40.41)
- HAQ-Pain, Observed, Median [1]: 40.0
- HAQ-DI, Change from Baseline, Mean (SD) [2]: 0.2 (0.56)
- HAQ-DI, Change from Baseline, Median [2]: 0.1
- HAQ-DI, Observed, Mean (SD) [2]: 0.7 (0.51)
- HAQ-DI, Observed, Median [2]: 0.6
- HAQ-Health, Change from Baseline, Mean (SD) [2]: −11.7 (62.52)
- HAQ-Health, Change from Baseline, Median [2]: −10.0
- HAQ-Health, Observed, Mean (SD) [2]: 28.3 (40.72)
- HAQ-Health, Observed, Median [2]: 10.0
- HAQ-Pain, Change from Baseline, Mean (SD) [2]: 0.0 (45.83)
- HAQ-Pain, Change from Baseline, Median [2]: −10.0
- HAQ-Pain, Observed, Mean (SD) [2]: 46.7 (40.41)
- HAQ-Pain, Observed, Median [2]: 40.0
- HAQ-DI, Change from Baseline, Mean (SD) [3]: −0.1 (0.35)
- HAQ-DI, Change from Baseline, Median [3]: −0.1
- HAQ-DI, Observed, Mean (SD) [3]: 0.1 (0.18)
- HAQ-DI, Observed, Median [3]: 0.1
- HAQ-Health, Change from Baseline, Mean (SD) [3]: −80.0 (0.00)
- HAQ-Health, Change from Baseline, Median [3]: −80.0
- HAQ-Health, Observed, Mean (SD) [3]: 0.0 (0.00)
- HAQ-Health, Observed, Median [3]: 0.0
- HAQ-Pain, Change from Baseline, Mean (SD) [3]: 2.5 (74.25)
- HAQ-Pain, Change from Baseline, Median [3]: 2.5
- HAQ-Pain, Observed, Mean (SD) [3]: 40.0 (56.57)
- HAQ-Pain, Observed, Median [3]: 40.0
- HAQ-DI, Change from Baseline, Mean (SD) [4]: −0.1 (0.35)
- HAQ-DI, Change from Baseline, Median [4]: −0.1
- HAQ-DI, Observed, Mean (SD) [4]: 0.1 (0.18)
- HAQ-DI, Observed, Median [4]: 0.1
- HAQ-Health, Change from Baseline, Mean (SD) [4]: −45.0 (49.50)
- HAQ-Health, Change from Baseline, Median [4]: −45.0
- HAQ-Health, Observed, Mean (SD) [4]: 0.0 (0.00)
- HAQ-Health, Observed, Median [4]: 0.0
- HAQ-Pain, Change from Baseline, Mean (SD) [4]: 2.5 (74.25)
- HAQ-Pain, Change from Baseline, Median [4]: 2.5
- HAQ-Pain, Observed, Mean (SD) [4]: 40.0 (56.57)
- HAQ-Pain, Observed, Median [4]: 40.0
- HAQ-DI, Change from Baseline, Mean (SD) (Week 14, Methotrexate Baseline): −0.2 (0.77)
- HAQ-DI, Change from Baseline, Median (Week 14, Methotrexate Baseline): 0.0
- HAQ-DI, Observed, Mean (SD) (Week 14, Methotrexate Baseline): 0.5 (0.41)
- HAQ-DI, Observed, Median (Week 14, Methotrexate Baseline): 0.5
- HAQ-Health, Change from Baseline, Mean (SD) (Week 14, Methotrexate Baseline): −12.5 (36.79)
- HAQ-Health, Change from Baseline, Median (Week 14, Methotrexate Baseline): −5.0
- HAQ-Health, Observed, Mean (SD) (Week 14, Methotrexate Baseline): 36.6 (33.87)
- HAQ-Health, Observed, Median (Week 14, Methotrexate Baseline): 16.5
- HAQ-Pain, Change from Baseline, Mean (SD) (Week 14, Methotrexate Baseline): −13.9 (30.48)
- HAQ-Pain, Change from Baseline, Median (Week 14, Methotrexate Baseline): −12.5
- HAQ-Pain, Observed, Mean (SD) (Week 14, Methotrexate Baseline): 27.1 (26.25)
- HAQ-Pain, Observed, Median (Week 14, Methotrexate Baseline): 15.0
- HAQ-DI, Change from Baseline, Mean (SD) (Week 14, Pegloticase Baseline): −0.3 (0.80)
- HAQ-DI, Change from Baseline, Median (Week 14, Pegloticase Baseline): 0.0
- HAQ-DI, Observed, Mean (SD) (Week 14, Pegloticase Baseline): 0.5 (0.41)
- HAQ-DI, Observed, Median (Week 14, Pegloticase Baseline): 0.5
- HAQ-Health, Change from Baseline, Mean (SD) (Week 14, Pegloticase Baseline): −4.3 (43.82)
- HAQ-Health, Change from Baseline, Median (Week 14, Pegloticase Baseline): −1.0
